Each structure is given as a SMILES string.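 These data come from cells grown in 96-well plates and exposed to compound for 48 hours at five concentrations. GI50 marks 50% less growth.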 The source made the active and inactive calls. No stated cut-off is given here; in the data, active = GI50 up to about 1.1 µM and inactive = higher. Bounds are passed on as bounds.

Test systems include KM-20L2; SF-268; SK-OV-3; RPMI-8226; CAKI-1; IGROV-1; A549; U-251; ACHN; EKVX; UO-31; M19-MEL; HCC 2998; NCI-H226; SNB-75; HCT-116; NCI-H522; MCF7; PC-3; Hs-578T.
Common to all, as to test: NCI-60 cell line screen, 48 h

With `O=[N+]([O-])c1ccccc1C1N2CCCCC2[C@@H]2c3[nH]c4ccccc4c3CCN12` (some centres not stated), the GI50 in the experiment on KM-20L2 is 12.4 µM (inactive); in the experiment on SF-268 it was 11.6 µM (inactive); with SK-OV-3, 17.9 µM (inactive); with RPMI-8226, 10.9 µM (inactive); with CAKI-1, 14 µM (inactive); in the experiment on IGROV-1, 15.6 µM (inactive). Further, the GI50 in the experiment with A549 is 9.84 µM (inactive); in the experiment with U-251 it was 15.6 µM (inactive); in the experiment with ACHN, 12.4 µM (inactive); with EKVX it was 20.7 µM (inactive); with UO-31 it was 11.3 µM (inactive); in the experiment on M19-MEL it was 6.25 µM (inactive).
For the compound `CCCCOCN/C(N)=N/C#N`, the GI50 in the experiment with HCC 2998, in the experiment on NCI-H226, with KM-20L2, in the experiment with SF-268, in the experiment with SK-OV-3 and in the experiment on SNB-75 was > 100 µM (inactive) in each case. Further, the GI50 with RPMI-8226, in the experiment on CAKI-1, in the experiment on IGROV-1, with A549, in the experiment on U-251 and in the experiment on HCT-116 was > 100 µM (inactive) throughout. Further, the GI50 in the experiment with ACHN, in the experiment on EKVX, with NCI-H522 and in the experiment with UO-31 was > 100 µM (inactive) each time.
Take `CN(C)/C=N\c1nc(=O)n(C2CCC(CO)O2)cc1F` (configuration not stated): the GI50 in the experiment with HCC 2998 was 96.6 µM (inactive); with NCI-H226, > 100 µM (inactive); with KM-20L2, > 100 µM (inactive); in the experiment with SF-268, > 100 µM (inactive); in the experiment on SK-OV-3, > 100 µM (inactive); in the experiment with SNB-75, > 100 µM (inactive). The GI50 in the experiment with RPMI-8226, in the experiment with CAKI-1, with A549, with U-251, in the experiment on ACHN and in the experiment on EKVX was > 100 µM (inactive) throughout. Further, the GI50 with NCI-H522 and with UO-31 was > 100 µM (inactive) in each case.
For the compound `O=C(/C=C(\O)C(=O)O)/C=C(\O)c1ccccc1`, the GI50 with NCI-H226, with KM-20L2, in the experiment with SF-268, with SK-OV-3, with SNB-75 and in the experiment with CAKI-1 was > 4.65 µM (inactive) each time. In addition, the GI50 in the experiment with IGROV-1, with A549, in the experiment on U-251, with HCT-116, in the experiment on ACHN and in the experiment with EKVX was > 4.65 µM (inactive) each time. The GI50 in the experiment on M19-MEL was > 4.65 µM (inactive).
In the case of `CC(C)(Cl)C(Cl)CC/C(CBr)=C(\Cl)CCl` (configuration not stated), the GI50 in the experiment with HCC 2998 is 14.4 µM (inactive); in the experiment with NCI-H226, 4.69 µM (inactive); in the experiment with MCF7, 11 µM (inactive); in the experiment with SF-268 it was 7.8 µM (inactive); in the experiment on SK-OV-3, 6 µM (inactive); in the experiment with SNB-75, 4.45 µM (inactive). Also, the GI50 in the experiment with RPMI-8226 was 1.89 µM (inactive); with CAKI-1 it was 5.09 µM (inactive); with IGROV-1, 2.04 µM (inactive); with A549, 18 µM (inactive); with U-251, 4.24 µM (inactive); in the experiment with HCT-116, 3.93 µM (inactive). Further, the GI50 in the experiment with PC-3 was 7.31 µM (inactive); with ACHN, 14.9 µM (inactive); with EKVX it was 17.7 µM (inactive); with NCI-H522, 0.658 µM (active); in the experiment on UO-31, 6.53 µM (inactive); in the experiment on Hs-578T it was 5.32 µM (inactive).
Take `O=c1c2cc([N+](=O)[O-])ccc2oc2nc3n(c(=O)c12)CCCS3`: the GI50 in the experiment on HCC 2998 was > 100 µM (inactive); in the experiment on NCI-H226, > 100 µM (inactive); in the experiment on MCF7, > 100 µM (inactive); in the experiment with SF-268, > 100 µM (inactive); in the experiment with SK-OV-3, > 100 µM (inactive); in the experiment with SNB-75 it was 64.9 µM (inactive). The GI50 in the experiment on RPMI-8226, in the experiment on CAKI-1, in the experiment with IGROV-1, with A549, with U-251 and in the experiment on HCT-116 was > 100 µM (inactive) each time. Moreover, the GI50 with PC-3 is > 100 µM (inactive); in the experiment with ACHN, > 100 µM (inactive); in the experiment with EKVX it was > 100 µM (inactive); in the experiment with NCI-H522, > 100 µM (inactive); in the experiment with UO-31, > 100 µM (inactive); in the experiment with Hs-578T, 56.1 µM (inactive).
`Nc1nnnn1NC(=O)NCCCl`: the GI50 in the experiment with HCC 2998, in the experiment on NCI-H226, in the experiment on MCF7, in the experiment on SF-268, in the experiment on SK-OV-3 and in the experiment on SNB-75 was > 10 µM (inactive) throughout. In addition, the GI50 with RPMI-8226, with CAKI-1, in the experiment with IGROV-1, in the experiment on A549, in the experiment with U-251 and with HCT-116 was > 10 µM (inactive) each time. For the same compound, the GI50 in the experiment on PC-3, in the experiment on ACHN, in the experiment on EKVX, in the experiment on NCI-H522, in the experiment on UO-31 and in the experiment on Hs-578T was > 10 µM (inactive) throughout.
As to `CCN(CC)CCC1CCCCN1CC(=O)N1c2ccccc2NC(=O)c2ccccc21` (configuration not stated), the GI50 with HCC 2998 is > 100 µM (inactive); in the experiment on NCI-H226 it was > 100 µM (inactive); in the experiment with MCF7 it was > 100 µM (inactive); with SF-268, > 100 µM (inactive); in the experiment on SK-OV-3, > 100 µM (inactive); in the experiment on SNB-75, 6.11 µM (inactive). Besides, the GI50 in the experiment with RPMI-8226, in the experiment with CAKI-1, in the experiment with IGROV-1, with A549, in the experiment with U-251 and with HCT-116 was > 100 µM (inactive) in each case. For the same compound, the GI50 with PC-3, in the experiment on ACHN, with EKVX, with NCI-H522, with UO-31 and in the experiment with Hs-578T was > 100 µM (inactive) each time.
Turning to `CCN1C/C(=C\c2ccc(Cl)cc2)c2nc(N)c(C#N)c(-c3ccc(Cl)cc3)c2C1`, the GI50 with HCC 2998 is > 100 µM (inactive); in the experiment on NCI-H226 it was > 100 µM (inactive); in the experiment on MCF7 it was > 100 µM (inactive); with SF-268, > 100 µM (inactive); in the experiment with SK-OV-3, > 100 µM (inactive); in the experiment with SNB-75, 60.3 µM (inactive). Besides, the GI50 in the experiment with RPMI-8226, with CAKI-1, in the experiment on IGROV-1, in the experiment with A549, in the experiment with U-251 and in the experiment with HCT-116 was > 100 µM (inactive) each time. Moreover, the GI50 in the experiment with PC-3, with ACHN, in the experiment on EKVX, in the experiment on NCI-H522, in the experiment with UO-31 and in the experiment on Hs-578T was > 100 µM (inactive) each time.
`CCOC(=O)[C@@]12C(C)=CC(=O)O[C@]1(C)C1C(=O)NC(=O)C12` (some centres not stated): the GI50 in the experiment on HCC 2998 is > 100 µM (inactive); in the experiment with NCI-H226, 7.16 µM (inactive); in the experiment with KM-20L2 it was > 100 µM (inactive); with SK-OV-3 it was > 100 µM (inactive); in the experiment with SNB-75 it was 85.1 µM (inactive); in the experiment on RPMI-8226 it was > 100 µM (inactive). The GI50 in the experiment on IGROV-1, in the experiment on A549, in the experiment with U-251, in the experiment with HCT-116, in the experiment with ACHN and with EKVX was > 100 µM (inactive) in each case. Moreover, the GI50 with UO-31 is > 100 µM (inactive).
As for `[N-]=[N+]=NC1C2CC3C4CC5CC3[C@H](C2)C(C5)C41` (some centres not stated), the GI50 in the experiment with HCC 2998 is > 100 µM (inactive); in the experiment with NCI-H226, 75.3 µM (inactive); in the experiment with SF-268, > 100 µM (inactive); with SK-OV-3, > 100 µM (inactive); with SNB-75, > 100 µM (inactive); with RPMI-8226 it was > 100 µM (inactive). For the same compound, the GI50 in the experiment on CAKI-1, with IGROV-1, with A549, with U-251, in the experiment on HCT-116 and in the experiment on ACHN was > 100 µM (inactive) each time. The GI50 in the experiment with EKVX, in the experiment with NCI-H522, with UO-31 and with M19-MEL was > 100 µM (inactive) each time.
On to `CC(=O)O[C@H]1C(=O)[C@@]2(C)[C@H]([C@H](OC(=O)c3ccccc3)[C@]3(O)C[C@H](OC(=O)[C@H](O)[C@@H](NC(=O)C(C)(C)C)c4ccccc4)C(C)=C1C3(C)C)[C@]1(OC(C)=O)CO[C@@H]1C[C@@H]2O`, for which the GI50 with HCC 2998 was 0.0702 µM (active); in the experiment on NCI-H226, 0.428 µM (active); with MCF7, 0.031 µM (active); with SF-268, 0.168 µM (active); in the experiment on SK-OV-3, 0.0177 µM (active); with SNB-75 it was 0.0555 µM (active). Besides, the GI50 with RPMI-8226 is 0.0305 µM (active); in the experiment with CAKI-1 it was 1.56 µM (inactive); in the experiment on IGROV-1, 0.0476 µM (active); with A549, 0.0809 µM (active); with U-251 it was 0.137 µM (active); with HCT-116 it was 0.0322 µM (active). Also, the GI50 was 0.0565 µM (active) with PC-3; 3.32 µM (inactive) in the experiment on ACHN; 1.87 µM (inactive) in the experiment with EKVX; 0.0306 µM (active) in the experiment on NCI-H522; 0.395 µM (active) in the experiment on UO-31; 0.0485 µM (active) in the experiment with Hs-578T.
